From paper PMC2719696, “Kinetics and Cellular Site of Glycolipid Loading Control the Outcome of Natural Killer T Cell Activation” (Immunity, 2009)

Tested on: detergent-resistant membrane microdomains
Test: Flow cytometry assay of αGalCer-mCD1d complex association with detergent-resistant membrane microdomains (JAWS II cells)
Type: cell-based, mouse
Settings: 0.1% Triton X-100
Description: The scale bar represents 10 μm. Results shown for individual cells were typical of >20 cells analyzed for each parameter with or without incubation with the indicated glycolipids. (B) Quantitation of colocalization shown in (A) for multiple randomly selected individual cells. Pearson correlation coefficient for the distribution of pixel densities for K253 or L363 fluorescence compared to cholera toxin B-specific fluorescence are plotted for each individual cell analyzed. Values for p were determined by one-way ANOVA. (C) Flow cytometry assay for αGalCer-mCD1d complex association with detergent-resistant membrane microdomains. […] Baseline fluorescence levels were recorded for 15 s, after which Triton X-100 was added to 0.1% (arrow) and recording was resumed for another ∼60 s. Each symbol indicates mean fluorescence intensity (MFI) averaged over 1 s of recording. […]
Another property of lipid rafts is their resistance to solubilization by nonionic detergents due to their enrichment in cholesterol, sphingomyelin, and saturated acyl chains ([Pike, 2008]). To assess the localization of αGalCer-mCD1d complexes in detergent insoluble microdomains, we used a flow-cytometry-based assay that quantitates the resistance of lipid-raft-associated transmembrane proteins to extraction by low concentrations of Triton X-100 ([Gombos et al., 2004a; Peng et al., 2007]). […]

Row | SMILES | extraction of mCD1d complexes (L363 staining) by detergent, in words
1 | CCCCCC=CCC=CCCCCCCCCCC(=O)NC(COC1OC(CO)C(O)C(O)C1O)C(O)C(O)CCCCCCCCCCCCCC (centres unmarked) [αGalCer-C20:2] | significant extraction by detergent
2 | CCCCCCCCCCCCCCC(O)C(O)C(COC1OC(CO)C(O)C(O)C1O)NC(=O)CCCCCCCCC (centres unmarked) [αGalCer-C10:0] | mainly localized to detergent soluble nonraft domains
